Test results published in patent EP3389676B1, “DOSAGE REGIMEN OF SODIUM SELENITE IN THE TREATMENT OF CANCER” (Pharma Nord ApS, priority 2015, dated 2017).

Legend:
[1] = tested on: patients with advanced cancer diseases; assay: Phase I dose-escalation trial of intravenously administered sodium selenite: toxicity and MTD; type: in vivo, human
Method: In a previous study, the present inventors carried out the first in-human phase-I trial to determine the MTD of intravenously administered sodium selenite in patients with advanced cancer diseases.
This phase I trial is an open-label dose-escalation study of i.v. administered sodium selenite. Each cohort consists of three patients who are treated with dosages regimens according to a predefined schedule having the two-step dosage regimen.
Serious toxicity in primarily the brain and the heart has been recorded in patients treated with high doses of selenite.
With a few exceptions, all patients visited the clinic before and after infusion, at least once a week during the treatment, before each chemotherapy treatment and at the end of treatment. At these occasions, the medical history is recorded, and a physical examination is performed. Patients undergo CT or PET-CT examination one week before the start, three days after the completion of the selenite treatment and after the final chemotherapy treatment. Routine blood parameters are analysed before, during and after the treatment. The ECG is examined before the start and after both the selenite and chemotherapy treatments.

[2] = Pharmacokinetics: plasma selenium by ICP-MS, one compartment infusion model; type: in vivo, human
Method: Blood samples are collected about 5 minutes prior and post infusion at all treatments. The plasma fractions are obtained by centrifugation and stored at -70°C until analyses.
Pharmacokinetic analyses are performed by using the Win-Nonlin program Standard Edition version 1.5 (Pharsight Corporation, Mountain View, CA, USA).
The one compartment infusion model was used for the evaluation of the pharmacokinetics. The reciprocal concentrations were used as weights for the iterative procedure. […] AUC values during the entire treatment period (i.e. from day 0 to day 35) were evaluated by applying the trapezoidal rule to estimated time-concentration curves.

[3] = tested on: patients with advanced cancer diseases; conditions: SECAR clinical phase I study; intermittent daily infusions (20-40 minutes); Brodin et al. 2014; cited from earlier work
cancer patients = conditions: cumulative intravenous administration of 100 mg; reports about a century ago; cited from earlier work

## O=[Se](O)O [sodium selenite]
[1]; 3.0 mg/m^2, cohort 2
  Toxicity registered from similar dose, during similar time but as intermittent infusion: 3.0 mg/m^2, cohort 2, no certain toxicity,
[1]; 4.5 mg/m^2, cohort 3
  Toxicity registered from similar dose, during similar time but as intermittent infusion: very mild toxicity
[1]; 6.0 mg/m^2, cohort 4
  Toxicity registered from similar dose, during similar time but as intermittent infusion: 6.0 mg/m^2, cohort 4, mild toxicity
[1]; 9.0 mg/m2, cohort 5
  Toxicity registered from similar dose, during similar time but as intermittent infusion: gr 1 toxicity
[1]; 20.4 mg/m^2, cohort 7
  Toxicity registered from similar dose, during similar time but as intermittent infusion: grade 2 toxicity
[1]; 38.4 mg/m^2, cohort 10
  Toxicity registered from similar dose, during similar time but as intermittent infusion: 38.4 mg/m^2, cohort 10, gr 3 & gr 4 toxicity
[1]; DLT appeared some hours after selenite infusion, without persisting toxicity or sequelae
  duration of dose-limiting toxicity (DLT): 6 to 8 h
[1]; at MTD dose (10.2 mg/m^2) and below
  bone marrow toxicity: no bone marrow toxicity was evident
[1]; cohort 8, total dose given as intermittent infusion over similar time
  MTD for repeated infusions: 30.6 mg/m2
[1]; could be dose-limiting in spite of antiemetic treatment
  toxicity mainly observed as: nausea, vomiting and fatigue
[1]; especially at high dose levels such as beyond MTD
  most significant adverse effects: heart toxicity with signs of ischemia, confusion and unconsciousness
[1]; intravenously administered, previous first in-human phase-I trial, well tolerated at doses up to this value
  MTD: 10.2 mg/m^2
[2]; high doses of repeated selenite administration
  plasma selenite concentration at the end of the treatment: returned to the baseline levels
[2]; in vivo
  plasma selenite concentration with respect to the total dose: linear increase
[3]
  maximum tolerated dose: approximately 10.2 mg/m^2
Cancer patients
  toxic effects: no incidence of toxic effects
